Results: US20250109156A1, “INDOLE-CONTAINING MACROCYCLIC COMPOUNDS AND USES THEREOF” (JIANGSU AOSAIKANG PHARMACEUTICAL CO., LTD., priority 2022, published 2025)

Experiments:
CDK2/CyclinE1 = CDK2/CyclinE1 (Homo sapiens (Human), UniProt P24941); test: In vitro CDK2/CyclinE1 enzyme activity assay (TR-FRET); format: biochemical; details: Ulight-4E-BP1 peptide, 25° C. 120 minutes
Method: Experimental Example 2: In Vitro CDK2/[…] Enzyme Activity Assay
CDK2/CyclinE1 was purchased from SignalChem. Ulight-4E-BP1 peptide, Eu-anti-phospho-tyrosine antibody, and 1× detection buffer were purchased from PerkinElmer. High-purity ATP was purchased from Promega. EDTA was purchased from Sigma. Nivo multimode microplate reader (PerkinElmer).
(§1) Preparation of kinase buffer: the kinase buffer containing 50 mM HEPES, 1 mM EDTA, 10 mM MgCl2, 0.01% Brij-35, pH 7.4.
(§2) 2.38 g of HEPES, 58 mg of EDTA, 406 mg of MgCl2, and 20 mg of Brij-35 were added to 200 mL of buffer, and the pH was adjusted to 7.4.
(§3) 100 μL of 1 M EDTA stock solution was mixed with 0.625 μL of 1× detection buffer and 1725 μL of distilled water to prepare the stop solution.
(§4) Enzyme, Ulight-4E-BP1 peptide, ATP, and inhibitors were diluted with the kinase buffer.
(§5) The Eu-anti-phospho-tyrosine antibody was diluted to a concentration of 8 nM/L using detection buffer.
The compounds to be tested were 5-fold diluted with a multi-channel pipette to the 8th concentration, i.e., from 40 μM to 0.512 nM, with a final DMSO concentration of 4%. The experiment was set up in duplicate wells. 2.5 μL of each concentration gradient of the inhibitor was added to the microplate, followed by 5 μL of CDK2/CyclinE1 enzyme (10 ng), and 2.5 μL of a mixture of substrate and ATP (4 mM ATP, 100 nM Ulight-4E-BP1 peptide). At this point, the final concentration gradient of the compound was 10 μM diluted to 0.128 nM. The reaction system was reacted at 25° C. for 120 minutes. After the reaction, 5 μL of stop solution was added to each well, and the reaction was continued at 25° C. for 5 minutes. After stopping the reaction, 5 μL of Eu-anti-phospho-tyrosine antibody dilution was added to each well, and the mixture was reacted at 25° C. for 60 minutes. Data were then collected using the PerkinElmer Nivo multimode microplate reader in TR-FRET mode (excitation wavelength: 320 nm, emission wavelength: 665 nm).
Using the equation (Sample−Min)/(Max−Min)*100% to convert the raw data into inhibition rate, the IC50 value may be obtained by curve fitting with four parameters (obtained by “log (inhibitor) vs. response—Variable slope” mode in GraphPad Prism). Table 1 provides the CDK2/CyclinE1 enzymatic inhibitory activity of the compounds of the present disclosure.

CDK9-CyclinT1 = CDK9-CyclinT1 (Homo sapiens (Human), UniProt P50750); test: In vitro CDK9-CyclinT1 enzyme activity assay (TR-FRET); format: biochemical; details: Ulight-4E-BP1 peptide, 25° C. 120 minutes
Method: Experimental Example 3: In Vitro CDK9/[…] Enzyme Activity Assay
CDK9-CyclinT1 was purchased from CARNA. Ulight-4E-BP1 peptide, Eu-anti-phospho-tyrosine antibody, and 1× detection buffer were purchased from PerkinElmer. High-purity ATP was purchased from Promega. EDTA was purchased from Sigma. Nivo multimode microplate reader (PerkinElmer).
as §1, §2, §3, §4, §5
The compounds to be tested were 4-fold diluted with a multi-channel pipette to the 8th concentration, i.e., from 400 μM to 24.4 nM, with a final DMSO concentration of 4%. The experiment was set up in duplicate wells. 2.5 μL of each concentration gradient of the inhibitor was added to the microplate, followed by 5 μL of CDK9-CyclinT1 enzyme (2 ng), and 2.5 μL of a mixture of substrate and ATP (8 mM ATP, 50 nM Ulight-4E-BP1 peptide). At this point, the final concentration gradient of the compound was 100 μM diluted to 6.1 nM. The reaction system was reacted at 25° C. for 120 minutes. After the reaction, 5 μL of stop solution was added to each well, and the reaction was continued at 25° C. for 5 minutes. After stopping the reaction, 5 μL of Eu-anti-phospho-tyrosine antibody dilution was added to each well, and the mixture was reacted at 25° C. for 60 minutes. Data were then collected using the PerkinElmer Nivo multimode microplate reader in TR-FRET mode (excitation wavelength: 320 nm, emission wavelength: 665 nm).
Using the equation (Sample−Min)/(Max−Min)*100% to convert the raw data into inhibition rate, the IC50 value may be obtained by curve fitting with four parameters (obtained by “log (inhibitor) vs. response—Variable slope” mode in GraphPad Prism). Table 1 provides the CDK9-CyclinT1 enzymatic inhibitory activity of the compounds of the present disclosure.

[1] = test system: HCC70 breast cancer xenograft (CDX); test: In vivo efficacy study, HCC70 breast cancer CDX model; parameters: species or system BALB/c nude mice; details: for Animal tolerance: BALB/c nude mice, HCC70 CDX
Method: Experimental Example 6: In Vivo Efficacy Study
In vivo efficacy experiments were conducted on BALB/c nude mice subcutaneously implanted with human tumor cell line-based xenograft (CDX) derived from HCC70 breast cancer patients.
BALB/c nude mice, female, 6 to 8 weeks old, weighing approximately 19 to 23 g, were maintained in a special pathogen-free environment in individual ventilated cages (6 mice per cage). All cages, bedding, and water were disinfected before use. All animals had free access to a standard certified commercial laboratory diet. A total of 36 mice, purchased from the Laboratory Animal Department of the Shanghai Institute of Planned Parenthood Research (formerly Shanghai SIPPR-BK), were used for the study. Each mouse was injected with 10×10^6 HCC70 cells on the right side of the neck, with an injection volume of 0.2 mL, and the cell suspension was in a 1:1 ratio of PBS and Matrigel. When the average tumor volume reached approximately 179 mm^3, random grouping was performed, and dosing was initiated.
Tumor volume was measured twice a week with a two-dimensional caliper, and the volume was measured in mm^3 and calculated by the following equation: V=0.5 a×b^2, where a and b are the long and short diameters of the tumor, respectively.

CDK9-CyclinT1, sequence (P50750 whole entry): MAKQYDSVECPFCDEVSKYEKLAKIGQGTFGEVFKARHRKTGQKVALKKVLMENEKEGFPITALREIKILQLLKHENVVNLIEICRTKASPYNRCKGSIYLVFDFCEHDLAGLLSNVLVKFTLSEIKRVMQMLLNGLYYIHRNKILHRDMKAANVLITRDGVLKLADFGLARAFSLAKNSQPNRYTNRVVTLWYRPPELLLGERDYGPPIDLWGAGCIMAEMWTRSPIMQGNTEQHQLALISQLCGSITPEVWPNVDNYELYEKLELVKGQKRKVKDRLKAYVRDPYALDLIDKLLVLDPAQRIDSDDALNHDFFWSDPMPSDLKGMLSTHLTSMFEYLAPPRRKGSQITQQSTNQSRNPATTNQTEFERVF
CDK9-CyclinT1, sequence (O60563 whole entry partner): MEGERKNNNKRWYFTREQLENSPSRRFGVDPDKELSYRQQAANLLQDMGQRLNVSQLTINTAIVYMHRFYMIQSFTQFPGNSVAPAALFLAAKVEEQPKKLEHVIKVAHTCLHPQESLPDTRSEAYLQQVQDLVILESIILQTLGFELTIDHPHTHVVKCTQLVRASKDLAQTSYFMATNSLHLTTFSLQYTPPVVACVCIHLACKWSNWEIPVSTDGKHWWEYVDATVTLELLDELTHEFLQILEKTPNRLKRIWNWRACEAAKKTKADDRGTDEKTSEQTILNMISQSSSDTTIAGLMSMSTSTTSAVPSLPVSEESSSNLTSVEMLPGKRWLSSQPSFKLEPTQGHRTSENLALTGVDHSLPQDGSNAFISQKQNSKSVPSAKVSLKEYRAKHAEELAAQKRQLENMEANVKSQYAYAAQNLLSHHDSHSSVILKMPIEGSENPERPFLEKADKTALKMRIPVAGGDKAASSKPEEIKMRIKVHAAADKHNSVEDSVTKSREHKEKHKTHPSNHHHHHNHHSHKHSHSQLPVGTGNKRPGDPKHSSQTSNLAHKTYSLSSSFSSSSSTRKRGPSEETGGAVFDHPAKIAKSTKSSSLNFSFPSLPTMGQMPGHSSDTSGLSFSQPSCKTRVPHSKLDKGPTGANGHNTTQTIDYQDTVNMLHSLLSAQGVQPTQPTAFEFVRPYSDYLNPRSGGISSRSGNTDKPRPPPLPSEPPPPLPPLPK

| SMILES | IC50 (CDK2/CyclinE1) [nM] | IC50 (CDK9-CyclinT1) [nM] | Animal tolerance ([1]; dose 1.5 mg/kg) | Tumor volume Day 0 ([1]; dose 1.5 mg/kg) [mm^3] | Tumor volume Day 7 ([1]; dose 1.5 mg/kg) [mm^3] | Tumor volume Day 14 ([1]; dose 1.5 mg/kg) [mm^3] | Tumor volume Day 21 ([1]; dose 1.5 mg/kg) [mm^3] | Animal tolerance ([1]; dose 3 mg/kg) | Tumor volume Day 0 ([1]; dose 3 mg/kg) [mm^3] | Tumor volume Day 7 ([1]; dose 3 mg/kg) [mm^3] | Tumor volume Day 14 ([1]; dose 3 mg/kg) [mm^3] | Tumor volume Day 21 ([1]; dose 3 mg/kg) [mm^3] |
| --- | --- | --- | --- | --- | --- | --- | --- | --- | --- | --- | --- | --- |
| CN1CCCCN2CCCC[C@@H](C2)Nc2ncc(C(F)(F)F)c(n2)-c2c[nH]c3c(P(C)(C)=O)c(ccc23)C1=O [Compound 3] | > 1000 | > 1000 |  |  |  |  |  |  |  |  |  |  |
| CN1CCCCN2CCC[C@@H](C2)Nc2ncc(C(F)(F)F)c(n2)-c2c[nH]c3c(P(C)(C)=O)c(ccc23)C1=O [Formate of compound 1] | 253 | 723 | Good | 179 | 273 | 178 | 105 |  |  |  |  |  |
| CP(C)(=O)c1c2ccc3c(c[nH]c13)-c1nc(ncc1C(F)(F)F)N[C@H]1CCCCN(CCCCNC2=O)C1 [Compound 6] | > 1000 | > 1000 |  |  |  |  |  | Good | 179 | 272 | 344 | 403 |
| CP(C)(=O)c1c2ccc3c(c[nH]c13)-c1nc(ncc1C(F)(F)F)N[C@H]1CCCN(CCCCNC2=O)C1 [Compound 5] | 738 | > 1000 |  |  |  |  |  | Good | 179 | 260 | 305 | 230 |
| CP(C)(=O)c1c2ccc3c(c[nH]c13)-c1nc(ncc1C(F)(F)F)N[C@H]1CCCN(CCCCCCO2)C1 [Compound 4] | > 1000 | > 1000 |  |  |  |  |  |  |  |  |  |  |
